# Measurements reported in PubChem BioAssay (NCI).
#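 Step 1: Grow cells in 96-well plates. Step 2: Expose to compound for 48 hours at 5 concentrations. Step 3: Interpolate endpoints linearly; if unreached, use highest concentration. GI50 is the concentration that inhibits growth by half. TGI denotes the concentration required for complete inhibition of growth.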
# What was measured:
# Test in all cases: inhibition of tumour cell growth, NCI panel, 48 h
# HOP-92 NSCLC = test system: HOP-92 NSCLC
# SK-MEL-2 melanoma = test system: SK-MEL-2 melanoma
# SF-268 CNS = test system: SF-268 CNS
# KM12 colon = test system: KM12 colon
# LXFL 529 NSCLC = test system: LXFL 529 NSCLC
# A498 renal = test system: A498 renal
# COLO 205 colon = test system: COLO 205 colon
# SK-MEL-5 melanoma = test system: SK-MEL-5 melanoma
# HCT-15 colon = test system: HCT-15 colon
# CCRF-CEM leukemia = test system: CCRF-CEM leukemia
# SN12C renal = test system: SN12C renal
# SNB-78 CNS = test system: SNB-78 CNS
# OVCAR-4 ovarian = test system: OVCAR-4 ovarian
# IGROV1 ovarian = test system: IGROV1 ovarian
# ACHN renal = test system: ACHN renal
# M14 melanoma = test system: M14 melanoma
# U251 CNS = test system: U251 CNS
# SF-539 CNS = test system: SF-539 CNS
# LOX IMVI melanoma = test system: LOX IMVI melanoma
# SNB-19 CNS = test system: SNB-19 CNS
# HCT-116 colon = test system: HCT-116 colon
# OVCAR-3 ovarian = test system: OVCAR-3 ovarian
# NCI-H460 lung = test system: NCI-H460 lung
# UACC-257 melanoma = test system: UACC-257 melanoma
# OVCAR-8 ovarian = test system: OVCAR-8 ovarian
# UACC-62 melanoma = test system: UACC-62 melanoma
# OVCAR-5 ovarian = test system: OVCAR-5 ovarian
# SNB-75 CNS = test system: SNB-75 CNS
# HOP-62 NSCLC = test system: HOP-62 NSCLC
# SK-OV-3 ovarian = test system: SK-OV-3 ovarian
# A549 NSCLC = test system: A549 NSCLC
# DMS 273 small cell lung = test system: DMS 273 small cell lung
# UO-31 renal = test system: UO-31 renal
# NCI-H522 lung = test system: NCI-H522 lung
# SK-MEL-28 melanoma = test system: SK-MEL-28 melanoma
# DLD-1 colon = test system: DLD-1 colon
# NCI-H23 lung = test system: NCI-H23 lung
# RPMI-8226 leukemia = test system: RPMI-8226 leukemia
# 786-0 renal = test system: 786-0 renal
# HCC-2998 colon = test system: HCC-2998 colon
# HT29 colon = test system: HT29 colon
# KM20L2 colon = test system: KM20L2 colon
# K-562 leukemia = test system: K-562 leukemia
# SF-295 CNS = test system: SF-295 CNS
# SW-620 colon = test system: SW-620 colon
# EKVX NSCLC = test system: EKVX NSCLC
# TK-10 renal = test system: TK-10 renal
# MOLT-4 leukemia = test system: MOLT-4 leukemia
# MALME-3M melanoma = test system: MALME-3M melanoma
smiles,measurement,setting,value
CC(C)CC(=O)[O-].N.N.N.N.N.[Co+3].[O-][Cl+3]([O-])([O-])[O-],GI50,HOP-92 NSCLC,> 100 µM
same,TGI,HOP-92 NSCLC,> 100 µM
same,GI50,SK-MEL-2 melanoma,> 100 µM
same,TGI,SK-MEL-2 melanoma,> 100 µM
same,GI50,SF-268 CNS,> 100 µM
same,TGI,SF-268 CNS,> 100 µM
same,GI50,KM12 colon,> 100 µM
same,TGI,KM12 colon,> 100 µM
same,GI50,LXFL 529 NSCLC,> 100 µM
same,TGI,LXFL 529 NSCLC,> 100 µM
same,GI50,A498 renal,> 100 µM
same,TGI,A498 renal,> 100 µM
same,GI50,COLO 205 colon,> 100 µM
same,TGI,COLO 205 colon,> 100 µM
same,GI50,SK-MEL-5 melanoma,> 100 µM
same,TGI,SK-MEL-5 melanoma,> 100 µM
same,GI50,HCT-15 colon,> 100 µM
same,TGI,HCT-15 colon,> 100 µM
same,GI50,CCRF-CEM leukemia,> 100 µM
same,TGI,CCRF-CEM leukemia,> 100 µM
same,GI50,SN12C renal,> 100 µM
same,TGI,SN12C renal,> 100 µM
same,GI50,SNB-78 CNS,> 100 µM
same,TGI,SNB-78 CNS,> 100 µM
same,GI50,OVCAR-4 ovarian,> 100 µM
same,TGI,OVCAR-4 ovarian,> 100 µM
same,GI50,IGROV1 ovarian,> 100 µM
same,TGI,IGROV1 ovarian,> 100 µM
same,GI50,ACHN renal,> 100 µM
same,TGI,ACHN renal,> 100 µM
same,GI50,M14 melanoma,> 100 µM
same,TGI,M14 melanoma,> 100 µM
same,GI50,U251 CNS,> 100 µM
same,TGI,U251 CNS,> 100 µM
same,GI50,SF-539 CNS,> 100 µM
same,TGI,SF-539 CNS,> 100 µM
same,GI50,LOX IMVI melanoma,> 100 µM
same,TGI,LOX IMVI melanoma,> 100 µM
same,GI50,SNB-19 CNS,> 100 µM
same,TGI,SNB-19 CNS,> 100 µM
same,GI50,HCT-116 colon,> 100 µM
same,TGI,HCT-116 colon,> 100 µM
same,GI50,OVCAR-3 ovarian,> 100 µM
same,TGI,OVCAR-3 ovarian,> 100 µM
same,GI50,NCI-H460 lung,> 100 µM
same,TGI,NCI-H460 lung,> 100 µM
same,GI50,UACC-257 melanoma,> 100 µM
same,TGI,UACC-257 melanoma,> 100 µM
same,GI50,OVCAR-8 ovarian,> 100 µM
same,TGI,OVCAR-8 ovarian,> 100 µM
same,GI50,UACC-62 melanoma,> 100 µM
same,TGI,UACC-62 melanoma,> 100 µM
same,GI50,OVCAR-5 ovarian,> 100 µM
same,TGI,OVCAR-5 ovarian,> 100 µM
same,GI50,SNB-75 CNS,22 µM
same,TGI,SNB-75 CNS,> 100 µM
same,GI50,HOP-62 NSCLC,> 100 µM
same,TGI,HOP-62 NSCLC,> 100 µM
same,GI50,SK-OV-3 ovarian,> 100 µM
same,TGI,SK-OV-3 ovarian,> 100 µM
same,GI50,A549 NSCLC,> 100 µM
same,TGI,A549 NSCLC,> 100 µM
same,GI50,DMS 273 small cell lung,> 100 µM
same,TGI,DMS 273 small cell lung,> 100 µM
same,GI50,UO-31 renal,85.7 µM
same,TGI,UO-31 renal,> 100 µM
same,GI50,NCI-H522 lung,> 100 µM
same,TGI,NCI-H522 lung,> 100 µM
same,GI50,SK-MEL-28 melanoma,> 100 µM
same,TGI,SK-MEL-28 melanoma,> 100 µM
same,GI50,DLD-1 colon,> 100 µM
same,TGI,DLD-1 colon,> 100 µM
same,GI50,NCI-H23 lung,> 100 µM
same,TGI,NCI-H23 lung,> 100 µM
same,GI50,RPMI-8226 leukemia,> 100 µM
same,TGI,RPMI-8226 leukemia,> 100 µM
same,GI50,786-0 renal,> 100 µM
same,TGI,786-0 renal,> 100 µM
same,GI50,HCC-2998 colon,> 100 µM
same,TGI,HCC-2998 colon,> 100 µM
same,GI50,HT29 colon,> 100 µM
same,TGI,HT29 colon,> 100 µM
same,GI50,KM20L2 colon,> 100 µM
same,TGI,KM20L2 colon,> 100 µM
same,GI50,K-562 leukemia,> 100 µM
same,TGI,K-562 leukemia,> 100 µM
same,GI50,SF-295 CNS,> 100 µM
same,TGI,SF-295 CNS,> 100 µM
same,GI50,SW-620 colon,> 100 µM
same,TGI,SW-620 colon,> 100 µM
same,GI50,EKVX NSCLC,> 100 µM
same,TGI,EKVX NSCLC,> 100 µM
same,GI50,TK-10 renal,> 100 µM
same,TGI,TK-10 renal,> 100 µM
same,GI50,MOLT-4 leukemia,70.8 µM
same,TGI,MOLT-4 leukemia,> 100 µM
same,GI50,MALME-3M melanoma,> 100 µM
same,TGI,MALME-3M melanoma,> 100 µM
